According to patent US4342780A, “Method of depleting endogenous monoamines” (Merrell-Toraude et Cie, priority 1981, dated 1982):
One block for each compound: values may come before it.

What was measured:
AADC [1] = molecular target: T1, AADC (Sus scrofa, UniProt P80041); assay: In vitro AADC inhibition: time of 90% inactivation (14CO2 trapping, DL-[1-14C]-dopa substrate); assay type: biochemical, hog; set-up: key to RATING: ++++: The relative activities of the compounds are rated by the given number of "plus" signs; +++: The relative activities of the compounds are rated by the given number of "plus" signs; 0-+: The relative activities of the compounds are rated by the given number of "plus" signs; conditions: CONC. 100 μM
T1 sequence (P80041 1-486): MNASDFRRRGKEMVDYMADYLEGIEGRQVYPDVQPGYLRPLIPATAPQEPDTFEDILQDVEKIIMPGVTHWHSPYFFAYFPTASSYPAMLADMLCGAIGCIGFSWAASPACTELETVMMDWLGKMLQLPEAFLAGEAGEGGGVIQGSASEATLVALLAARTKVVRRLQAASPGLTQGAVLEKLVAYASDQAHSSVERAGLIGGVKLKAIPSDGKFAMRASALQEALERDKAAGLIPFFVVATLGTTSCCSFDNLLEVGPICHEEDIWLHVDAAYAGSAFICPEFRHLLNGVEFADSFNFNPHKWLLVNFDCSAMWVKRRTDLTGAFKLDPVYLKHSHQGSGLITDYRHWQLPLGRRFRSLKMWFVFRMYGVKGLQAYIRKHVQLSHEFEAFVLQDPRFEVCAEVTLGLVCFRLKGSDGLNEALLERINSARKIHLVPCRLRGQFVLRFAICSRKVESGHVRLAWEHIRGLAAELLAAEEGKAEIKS
Procedure: AADC can be purified from hog kidney by the general method of J. Christenson et al. Archs. Biochem. Biophys., 141, 356 (1970) and G. Lancaster et al., Can. J. Biochem., 50, 791 (1972), and the specific activity of the enzyme is determined by the ^14 CO2 trapping method using DL-[1-^14 C]-dopa as the substrate (see Christenson et al.). One unit of activity is defined as the total amount of enzyme which produces 1 n mol of CO2 per minute, with DL-[1-^14 C]-dopa as substrate.
To 100 μl of 50 mM-phosphate buffer pH 7.4 containing 100 mM-mercapto-ethanol are added 5 μl of an aqueous solution containing the test compound at the desired concentration and 50 μl of an aqueous solution containing 2 units of AADC. The mixture is incubated at 37° C. and 20 μl aliquots are removed at various times. The AADC activity remaining in each aliquot is measured by the CO2 trapping method of Christenson.
The relative activities of the compounds are rated by the given number of "plus" signs.

AADC [2] = assay: Ex vivo AADC activity in organs of mice after repeated i.p. doses (Table II); set-up: species or system mice (Swiss Albino); conditions: three days, 12 h after 6th dose, vs control
Procedure: (§1) The test animals (e.g. mice or rats) are given the test compound in a suitable vehicle, either orally or by injection, each day over the period of time desired. The animals are kept on a constant time cycle, and body weights are measured daily. The animals are sacrificed by decapitation 12 to 24 hours after receiving the last dose of the test compound. Control animals receive the vehicle alone.
(§2) Immediately after death, the organs (brain, heart, and kidney) are removed and homogenized either in 50 ml phosphate buffer pH 6.8 for AADC determination or in ice-cold 0.4 M HClO4 containing 0.05% (w/v) EDTA and 0.1% (w/v) sodium bisulfite for catecholamine determination. AADC activity is determined by the ^14 CO2 trapping method of J. Christenson, supra (see Example 14) using DL-[1-^14 C]-dopa as the substrate. Catecholamines are determined by centrifuging the homogenate, adding the supernatant to alumina buffered to pH 8.0-8.4 to adsorb the catecholamines, re-extracting the catecholamines from the alumina with 0.2 M HClO4 and determining the catecholamines in the extracts using known procedures, such as by reversed-phase ion-pair HPLC with electrochemical detection.
(§3) Table II, shown below, sets forth the results obtained by testing particular compounds of Formula I in the above-described procedure in mice (Swiss Albino) after i.p. administration of the compound twice daily for three days: […]

[3] = test system: catecholamine content (norepinephrine, dopamine); assay: Catecholamine content in organs of mice after repeated i.p. doses (Table II); assay type: in vivo, mice (Swiss Albino); conditions: three days, 12 h after 6th dose, vs control
Procedure: as §1, §2, §3

AADC [4] = assay: AADC inhibition in organs of fasted rats after a single dose; assay type: in vivo; conditions: 16 h
Procedure: as §1, §2
(§4) In the brain, doses of 10 mg/kg and 200 mg/kg produced a 10% reduction and a 70-80% reduction of AADC activity, respectively. […] In the heart, no reduction of norepinephrine is noted up to a dose of 200 mg/kg. When tested after multiple administration of 10, 25, or 50 mg/kg given daily for six days in rats sacrificed 24 hours after the sixth dose, the compound produced a 50% decrease in brain norephinephrine at a dose of 10 mg/kg (daily). […] Serotonin (5-HT) levels, as assessed by standard techniques, are not altered in the brain even at the highest dose tested. Heart norepinephrine is reduced by only 20% at the highest dose.

[5] = test system: catecholamine levels (norepinephrine, dopamine); assay: Catecholamine levels in organs of fasted rats after a single dose; assay type: in vivo; conditions: 16 h
Procedure: as §1, §2, §4

[6] = test system: catecholamine levels (norepinephrine, dopamine) and serotonin (5-HT); assay: Catecholamine and serotonin levels in organs of rats after daily doses for six days; assay type: in vivo
Procedure: as §1, §2, §4

[7] = test system: endogenous catecholamine and 5-HT levels; assay: Effect on endogenous catecholamine and 5-HT levels in brain and heart (general statement); assay type: in vivo
[8] = test system: catecholamine levels (dopamine, noradrenaline); assay: Effect of dopamine injection on catecholamine levels in heart and brain of mice treated with test compound (Table VI); assay type: in vivo, Male albino mice
Procedure: Saline solution is used as a control. The mice are sacrificed and the catecholamines, dopamine and noradrenaline, and serotonin (5-hydroxytryptamine) are determined by reverse-phase ion-pair high pressure liquid chromatography using electrochemical detection. […] Twelve hours after the second dose, one group of animals received an i.p. injection of 50 mg/kg of dopamine-HCl (Sigma, Chem. Co), the other group received saline instead. Three hours after the dopamine injection, the animals were killed and catecholamines were measured in heart and brain as described in Example 18.

TIME OF 90% INACTIVATION (AADC [1]; pH 7.4, 37° C.): 4 min
RATING (AADC [1]; relative activity): +++
SMILES: NC(CF)(Cc1cccc(O)c1)C(=O)O (centres unmarked) [Example 3-OH-phenyl, 2-Amino-2-fluoromethyl-3-(3-hydroxyphenyl)propionic acid]
% CHANGE AADC Brain (AADC [2]; 10 mg/kg i.p. twice daily): -80%
% CHANGE AADC Kidney (AADC [2]; 10 mg/kg i.p. twice daily): -78%
% CHANGE AADC Brain (AADC [2]; 100 mg/kg i.p. twice daily): -95%
% CHANGE AADC Kidney (AADC [2]; 100 mg/kg i.p. twice daily): -96%
% CHANGE NOREPINEPHRINE Brain ([3]; 10 mg/kg i.p. twice daily, * not significant): -34%
% CHANGE NOREPINEPHRINE Heart ([3]; 10 mg/kg i.p. twice daily, * not significant (-25*, -7*)): 0%
% CHANGE DOPAMINE Brain ([3]; 10 mg/kg i.p. twice daily, * not significant (-25*, -9*)): 0%
% CHANGE NOREPINEPHRINE Brain ([3]; 100 mg/kg i.p. twice daily): -77%
% CHANGE NOREPINEPHRINE Heart ([3]; 100 mg/kg i.p. twice daily): -49%
% CHANGE DOPAMINE Brain ([3]; 100 mg/kg i.p. twice daily, * not significant (-35*)): -75%

SMILES: COC(=O)C(N)(CF)Cc1ccc(O)cc1 (centres unmarked) [Methyl 2-amino-2-fluoromethyl-3-(4-hydroxyphenyl)propionate]
reduction of AADC activity in the brain (AADC [4]; 10 mg/kg single dose): 10%
AADC activity in kidney, liver, and adrenals (AADC [4]; 50 mg/kg single dose): marked decrease
AADC inhibition in kidney, liver, and adrenals (AADC [4]; 100 mg/kg single dose): Complete inhibition
reduction of AADC activity in the brain (AADC [4]; 200 mg/kg single dose): 70-80%
AADC activity in the heart (AADC [4]; up to 200 mg/kg single dose): not reduced significantly
Brain norepinephrine decrease ([5]; 10 mg/kg single dose): 15-20%
dopamine decrease (brain) ([5]; 50 mg/kg single dose): decreased significantly
Brain norepinephrine decrease ([5]; 200 mg/kg single dose): 50%
dopamine decrease (brain) ([5]; 200 mg/kg single dose): 75%
reduction of norepinephrine in the heart ([5]; up to 200 mg/kg single dose): no reduction
decrease in brain norepinephrine ([6]; 10 mg/kg daily for six days, 24 h after sixth dose): 50%
Brain dopamine decrease ([6]; 50 mg/kg daily for six days, 24 h after sixth dose): 50%
decrease in brain norepinephrine, response at higher doses ([6]; 25 or 50 mg/kg daily for six days (above 10 mg/kg), 24 h after sixth dose): do not give an additional response
Brain dopamine, effect at lower doses ([6]; below 50 mg/kg (10, 25) daily for six days, 24 h after sixth dose): no significant effect
Serotonin (5-HT) levels in the brain ([6]; even at the highest dose tested, daily for six days): not altered
Heart norepinephrine reduction ([6]; highest dose (50 mg/kg) daily for six days, 24 h after sixth dose): 20%
endogenous 5-HT levels in the brain [7]: not altered
endogenous catecholamine levels in brain and heart [7]: lower engenous catecholamine levels in the brain but not in the heart

SMILES: NCCc1ccc(O)c(O)c1 [dopamine, reference compound]
depletion of noradrenaline in the heart achieved by the test-compound ([8]; effect of dopamine injection 50 mg/kg i.p.): reversed totally
depletion of amines in the central nervous system ([8]; effect of exogenous dopamine 50 mg/kg i.p.): not affected
